We go through 12 molecules from patent publication US10689362B2, “Quinoxaline compounds as type III receptor tyrosine kinase inhibitors” (Development Center for Biotechnology, priority 2016, dated 2020).

The structures appear in SMILES notation.

One assay concerns the target c-KIT kinase (Homo sapiens (Human), UniProt P10721). Description: c-KIT kinase assay (radiometric). The assay is classed as biochemical. Conditions: class symbol. In a few lines:
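Recombinant c-Kit (20 ng) with 2 μg Poly-(Glu4:Tyr1) in MOPS pH 7.0 buffer with MgCl2/MnCl2, 10 μM ATP plus [^33P]-ATP, 4% DMSO final, 60 min at 30° C. Stopped with phosphoric acid, filter-captured and scintillation counted; IC50 from curve fit.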

Assay [1] concerns MV4-11 human acute myeloid leukemia cell with FLT3-ITD mutation. Description: MV4-11 cell proliferation assay (CellTiter-96). The assay is classed as cell-based. The note with it: Cytotoxicity, MV4-11 cells, 72 hours. The method in brief: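 Growth inhibition read as absorbance at 490 nm after 4 hours with CellTiter96 AQueous One reagent. Before that, FLT3-ITD-dependent MV4-11 cells (6500 cells/well, overnight at 37° C., 5% CO2) received a rising compound concentration series for 72 hours.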

A further assay has as its target FLT3 kinase (Homo sapiens (Human), UniProt P36888). Description: FLT3 kinase assay (radiometric). The assay is classed as biochemical. In a few lines:
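Recombinant FLT3 (5 ng) phosphorylating poly(Glu4:Tyr1) (2 μg) with 10 μM ATP plus [^33P]-ATP in MOPS pH 7.0 buffer, 4% DMSO final, 60 min at 30° C. Reaction stopped with phosphoric acid, filter-captured and scintillation-counted; IC50 derived from dose-response.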

For a further assay, the target named is PDGFRβ kinase (Homo sapiens (Human), UniProt P09619). Description: PDGFRβ kinase assay (radiometric). The class given is biochemical. The method in brief:
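Radiometric assay: recombinant PDGFRβ with poly(Glu4:Tyr1) in MOPS pH 7.0 buffer containing Mg2+/Mn2+, 10 μM ATP plus [33P]-ATP, and compound at 4% DMSO final. Incubated 60 min at 30° C, stopped with phosphoric acid, filter-captured and scintillation-counted. IC50 from curve fitting.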

Assay [2] has as its system Kasumi-1 human acute myeloid leukemia cell with c-KIT N822K activating mutation. Kind of assay: Kasumi-1 cell proliferation assay (CellTiter-96). The class given is cell-based. Conditions: Cytotoxicity, Kasumi-1 cells, 72 hours. The method in brief:
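After 72 h of treatment with a compound dilution series, growth of c-KIT N822K-driven Kasumi-1 cells (64000 per well, plated the day before) was read as 490 nm absorbance. This followed a 4 h incubation with CellTiter96 AQueous One reagent.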

In a further assay the target is CSF-1R kinase (Homo sapiens (Human), UniProt P07333). Description: CSF-1R kinase assay (AlphaScreen). Conditions: class symbol. The assay is classed as biochemical. On the procedure: Inhibition of CSF-1R kinase activity by a test compound disclosed herein was estimated by AlphaScreen (PerkinElmer). […] Reactions were incubated at 30° C. for 45 min and stopped by adding 5 μL of 50 mM EDTA. Analysis of resulting product using an AlphaScreen kit, and counted with Enspire Alpha (PerkinElmer). […] The IC50 values of quinoxaline compounds of this invention against CSF-1R kinase were determined using the GraphPad Prism 5 software.
Background: Alpha assays give light when donor and acceptor beads are brought close together.

In assay [3] the test system is THP-1 human acute monocytic leukemia cell harboring NRAS G12D mutation. Description: THP-1 cell proliferation assay (counter screen, CellTiter-96). The assay is classed as cell-based. Conditions: Cytotoxicity, THP-1 cells (counter screen), 72 hours. In a few lines: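 Growth inhibition read as 490 nm absorbance after 4 h with CellTiter96 AQueous One reagent, following 72 h compound exposure at rising concentrations. THP-1 (NRAS G12D) cells plated at 5000 per well and left overnight at 37 °C, 5% CO2 before dosing.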
In general terms: The purpose of a counterscreen is to sort out artefacts and off-target activity.

Assay [4] deals with CSF-1-dependent M-NFS-60 mouse myeloid leukemia cell. Description: M-NFS-60 cell proliferation assay (CellTiter-96). The class given is cell-based. The note with it: Cytotoxicity, M-NFS-60 cells, 72 hours. The method in brief:
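Growth inhibition was measured as absorbance at 490 nm after 4 h with CellTiter 96 AQueous One reagent. Beforehand, M-NFS-60 cells (2000/well, CSF-1-dependent) were treated with a compound dilution series for 72 h following overnight plating at 37 °C, 5% CO2.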

For assay [5], the system named is osteoclast precursors (osteoclast differentiation). Description: Osteoclast tartrate-resistant acid phosphatase assay. The class given is cell-based. The note with it: 168 h, at 1 μM treatment, 7 days, RANKL and M-CSF, read-out: inhibition activity against osteoclast differentiation. The method in brief: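 Differentiation inhibition was scored at 1 μM compound in duplicate, using supernatant TRAP activity read at 550 nm with an acid phosphatase kit.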

Chain of c-KIT kinase (P10721 26-976): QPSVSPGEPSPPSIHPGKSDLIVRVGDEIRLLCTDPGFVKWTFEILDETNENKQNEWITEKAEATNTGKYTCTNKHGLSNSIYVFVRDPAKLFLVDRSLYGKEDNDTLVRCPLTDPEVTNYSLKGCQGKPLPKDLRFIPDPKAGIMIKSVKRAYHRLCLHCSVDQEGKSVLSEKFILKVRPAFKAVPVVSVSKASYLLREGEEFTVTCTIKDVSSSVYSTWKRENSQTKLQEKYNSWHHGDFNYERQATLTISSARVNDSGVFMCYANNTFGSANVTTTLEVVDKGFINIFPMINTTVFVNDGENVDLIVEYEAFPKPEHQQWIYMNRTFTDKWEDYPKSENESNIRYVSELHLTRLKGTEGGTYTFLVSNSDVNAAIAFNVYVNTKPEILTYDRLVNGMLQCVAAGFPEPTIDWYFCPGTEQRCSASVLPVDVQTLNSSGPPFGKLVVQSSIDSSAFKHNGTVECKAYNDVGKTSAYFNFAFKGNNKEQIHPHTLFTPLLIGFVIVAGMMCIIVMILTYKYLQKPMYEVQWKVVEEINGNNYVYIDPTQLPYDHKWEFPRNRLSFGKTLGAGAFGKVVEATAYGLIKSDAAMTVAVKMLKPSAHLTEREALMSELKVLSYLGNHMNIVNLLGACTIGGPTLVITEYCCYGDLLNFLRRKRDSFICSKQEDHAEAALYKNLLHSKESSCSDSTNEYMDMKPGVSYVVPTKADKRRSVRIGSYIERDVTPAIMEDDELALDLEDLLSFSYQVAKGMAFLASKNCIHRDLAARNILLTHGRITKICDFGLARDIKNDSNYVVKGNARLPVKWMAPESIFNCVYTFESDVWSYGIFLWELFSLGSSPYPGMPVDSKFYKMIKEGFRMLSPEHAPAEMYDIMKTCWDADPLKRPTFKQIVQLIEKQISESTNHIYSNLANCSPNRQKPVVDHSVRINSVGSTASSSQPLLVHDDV
Chain of CSF-1R kinase (P07333 20-972): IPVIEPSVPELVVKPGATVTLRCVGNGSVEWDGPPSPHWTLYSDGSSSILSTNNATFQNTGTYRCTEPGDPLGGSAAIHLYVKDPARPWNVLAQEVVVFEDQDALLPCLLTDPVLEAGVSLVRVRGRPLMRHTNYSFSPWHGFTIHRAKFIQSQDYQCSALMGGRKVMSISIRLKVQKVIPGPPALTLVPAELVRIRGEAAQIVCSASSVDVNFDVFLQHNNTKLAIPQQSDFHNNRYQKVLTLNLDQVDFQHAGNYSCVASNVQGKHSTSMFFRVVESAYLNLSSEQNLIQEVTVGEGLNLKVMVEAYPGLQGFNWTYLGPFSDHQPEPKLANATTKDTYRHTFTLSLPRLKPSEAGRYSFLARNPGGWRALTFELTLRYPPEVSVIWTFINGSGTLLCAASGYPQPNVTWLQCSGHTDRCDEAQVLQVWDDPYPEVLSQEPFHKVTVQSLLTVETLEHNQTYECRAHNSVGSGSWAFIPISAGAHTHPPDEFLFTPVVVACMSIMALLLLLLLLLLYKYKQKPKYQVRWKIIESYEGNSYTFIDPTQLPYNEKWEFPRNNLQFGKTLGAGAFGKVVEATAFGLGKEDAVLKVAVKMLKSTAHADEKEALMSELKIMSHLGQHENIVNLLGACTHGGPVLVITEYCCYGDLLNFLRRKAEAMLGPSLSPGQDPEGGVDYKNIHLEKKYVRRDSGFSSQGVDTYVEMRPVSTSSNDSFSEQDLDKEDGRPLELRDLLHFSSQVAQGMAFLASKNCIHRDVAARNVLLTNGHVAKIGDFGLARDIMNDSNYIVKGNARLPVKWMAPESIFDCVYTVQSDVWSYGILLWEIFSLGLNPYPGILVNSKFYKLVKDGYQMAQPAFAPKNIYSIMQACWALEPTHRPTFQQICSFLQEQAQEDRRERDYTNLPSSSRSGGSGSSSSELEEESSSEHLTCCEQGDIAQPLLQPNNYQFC
Chain of FLT3 kinase (P36888 27-993): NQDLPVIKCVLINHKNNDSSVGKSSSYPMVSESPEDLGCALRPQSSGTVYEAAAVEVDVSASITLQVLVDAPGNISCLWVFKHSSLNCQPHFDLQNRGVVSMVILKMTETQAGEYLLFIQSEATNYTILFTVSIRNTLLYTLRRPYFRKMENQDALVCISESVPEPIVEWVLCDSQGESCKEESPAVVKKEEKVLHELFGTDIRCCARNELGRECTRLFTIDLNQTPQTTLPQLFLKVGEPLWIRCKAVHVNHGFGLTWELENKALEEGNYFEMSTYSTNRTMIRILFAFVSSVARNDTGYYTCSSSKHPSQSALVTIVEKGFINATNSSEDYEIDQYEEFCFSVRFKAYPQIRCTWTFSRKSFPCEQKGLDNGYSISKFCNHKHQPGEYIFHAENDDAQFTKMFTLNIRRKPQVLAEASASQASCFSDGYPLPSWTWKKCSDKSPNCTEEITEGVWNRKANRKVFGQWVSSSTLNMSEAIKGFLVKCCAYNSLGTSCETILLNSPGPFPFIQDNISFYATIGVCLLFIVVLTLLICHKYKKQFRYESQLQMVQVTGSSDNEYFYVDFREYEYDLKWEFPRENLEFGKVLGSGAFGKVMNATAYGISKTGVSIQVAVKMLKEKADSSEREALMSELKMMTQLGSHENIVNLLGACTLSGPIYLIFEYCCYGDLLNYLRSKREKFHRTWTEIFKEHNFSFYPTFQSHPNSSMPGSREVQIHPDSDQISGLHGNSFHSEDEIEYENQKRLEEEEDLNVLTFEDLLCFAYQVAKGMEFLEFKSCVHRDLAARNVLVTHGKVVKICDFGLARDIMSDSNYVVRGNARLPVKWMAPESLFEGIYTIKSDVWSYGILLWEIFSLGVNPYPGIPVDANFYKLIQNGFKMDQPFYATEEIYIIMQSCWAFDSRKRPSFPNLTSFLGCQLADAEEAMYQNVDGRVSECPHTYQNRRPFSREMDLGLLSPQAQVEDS
Chain of PDGFRβ kinase (P09619 33-1106): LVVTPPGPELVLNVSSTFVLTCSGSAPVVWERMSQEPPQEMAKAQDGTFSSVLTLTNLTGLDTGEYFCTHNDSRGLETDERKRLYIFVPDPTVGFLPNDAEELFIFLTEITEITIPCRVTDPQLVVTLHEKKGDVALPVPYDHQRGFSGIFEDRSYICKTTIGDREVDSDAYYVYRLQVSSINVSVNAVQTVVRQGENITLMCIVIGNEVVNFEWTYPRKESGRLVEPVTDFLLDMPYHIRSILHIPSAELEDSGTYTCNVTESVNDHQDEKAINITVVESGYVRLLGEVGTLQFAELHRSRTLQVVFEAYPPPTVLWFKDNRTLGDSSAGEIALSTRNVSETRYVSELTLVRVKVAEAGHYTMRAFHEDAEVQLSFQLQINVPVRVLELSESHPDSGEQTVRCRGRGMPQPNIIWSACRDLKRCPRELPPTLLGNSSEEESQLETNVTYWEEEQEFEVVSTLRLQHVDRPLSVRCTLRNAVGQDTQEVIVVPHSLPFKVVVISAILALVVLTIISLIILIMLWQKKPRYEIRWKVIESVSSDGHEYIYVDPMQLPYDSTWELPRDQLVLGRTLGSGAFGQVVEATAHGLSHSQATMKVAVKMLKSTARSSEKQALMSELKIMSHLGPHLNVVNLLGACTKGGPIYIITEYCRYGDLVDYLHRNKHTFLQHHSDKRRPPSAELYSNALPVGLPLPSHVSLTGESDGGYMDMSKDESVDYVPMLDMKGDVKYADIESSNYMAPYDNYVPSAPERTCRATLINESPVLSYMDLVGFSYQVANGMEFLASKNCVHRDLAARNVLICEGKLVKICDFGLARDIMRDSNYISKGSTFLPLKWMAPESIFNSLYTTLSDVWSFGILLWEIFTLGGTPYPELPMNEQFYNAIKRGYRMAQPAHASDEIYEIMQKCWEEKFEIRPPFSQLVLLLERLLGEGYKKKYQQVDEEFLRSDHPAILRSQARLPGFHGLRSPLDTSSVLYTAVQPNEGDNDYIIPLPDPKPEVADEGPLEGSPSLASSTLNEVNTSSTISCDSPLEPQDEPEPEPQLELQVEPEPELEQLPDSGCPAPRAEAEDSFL

Turning to `COc1ccc(COc2ccc(Nc3ccc4ncc(NC5CCN(Cc6ccccc6)CC5)nc4c3C#N)cc2OC)cc1` [Example 77, 3-((1-benzylpiperidin-4-yl)amino)-6-((3-methoxy-4-((4-methoxybenzyl)oxy)phenyl)amino)quinoxaline-5-carbonitrile], the concentration for half-maximal inhibition (IC50) (as a rule, the concentration at which inhibition is half-maximal) is 300 to 1000 nM on c-KIT kinase; 1000 to 10000 nM in [1]; more than 1000 nM on FLT3 kinase (bound); more than 1000 nM against PDGFRβ kinase (bound); 1000 to 10000 nM in assay [2]; less than 100 nM against CSF-1R kinase. Also, the figures for the 50% inhibitory concentration (IC50) in [3] and in assay [4] were 1000 to 10000 nM and 300 to 1000 nM, respectively. Besides, the inhibition (usually the change of the read-out against control, counted positive when it falls) at 1 µM in [5] is more than 50%.
As to `COc1ccc(COc2ccc(Nc3ccc4ncc(N5CCC(OC(C)=O)CC5)nc4c3C#N)cc2OC)cc1` [Example 68, 1-(8-cyano-7-((3-methoxy-4-((4-methoxybenzyl)oxy)phenyl)amino)quinoxalin-2-yl)piperidin-4-yl acetate], the half-maximal inhibitory concentration (IC50) was less than 100 nM against c-KIT kinase; 1000 to 10000 nM in [1]; more than 1000 nM at FLT3 kinase (bound); more than 1000 nM against PDGFRβ kinase (bound); less than 300 nM in assay [2]; less than 100 nM at CSF-1R kinase. The figures for the IC50 in assay [3] and in assay [4] were more than 10000 nM and less than 300 nM, respectively. Besides, the inhibition at 1 µM in [5] was more than 50%.
As for `COc1ccc(COc2ccc(Nc3ccc4ncc(N5CCOCC5)nc4c3C#N)cc2OC)cc1F` [Example 93, 6-((4-((3-fluoro-4-methoxybenzyl)oxy)-3-methoxy-phenyl)amino)-3-morpholinoquinoxaline-5-carbonitrile], the IC50 against c-KIT kinase was less than 100 nM; in assay [1], more than 10000 nM; at FLT3 kinase (bound), more than 1000 nM; against PDGFRβ kinase (bound) it was more than 1000 nM; in assay [2] it was less than 300 nM; against CSF-1R kinase, less than 100 nM. In addition, the concentration for half-maximal inhibition (IC50) in assay [3] is more than 10000 nM; in assay [4] it was less than 300 nM. In assay [5], the inhibition at 1 µM was more than 50%.
Regarding `COc1ccc(COc2ccc(Nc3ccc4ncc(N5CCOCC5)nc4c3C#N)cc2)cc1` [Example 38, 6-((4-((4-methoxybenzyl)oxy)phenyl)amino)-3-morpholinoquinoxaline-5-carbonitrile], the IC50 on c-KIT kinase is less than 100 nM; in assay [1], less than 300 nM; against FLT3 kinase (class symbol) it was 100 to 300 nM; against PDGFRβ kinase (class symbol), 100 to 300 nM; in assay [2] it was 300 to 1000 nM; against CSF-1R kinase, less than 100 nM. Moreover, the 50% inhibitory concentration (IC50) was more than 10000 nM in assay [3] and less than 300 nM in assay [4]. Moreover, the inhibition at 1 µM in assay [5] is more than 50%.
Consider `COc1ccc(COc2ccc(Nc3ccc4ncc(N5CCN(C(C)C)CC5)nc4c3C#N)cc2OC)cc1` [Example 80, 3-(4-isopropylpiperazin-1-yl)-6-((3-methoxy-4-((4-methoxybenzyl)oxy)phenyl)amino)quinoxaline-5-carbonitrile], for which the IC50 on c-KIT kinase is less than 100 nM; in assay [1] it was 1000 to 10000 nM; at FLT3 kinase (bound), more than 1000 nM; against PDGFRβ kinase (bound) it was more than 1000 nM; in assay [2], less than 300 nM; at CSF-1R kinase it was less than 100 nM. Also, the IC50 in [3] is 1000 to 10000 nM; in assay [4], less than 300 nM. For the same molecule, in assay [5], the inhibition at 1 µM is more than 50%.
Turning to `CNc1cnc2ccc(Nc3ccc(OCc4ccc(OC)cc4)c(OC)c3)cc2n1` [Example 25, N^7-(3-methoxy-4-((4-methoxybenzyl)oxy)phenyl)-N^2-methylquinoxaline-2,7-diamine], the IC50 at c-KIT kinase is less than 100 nM; in [1], 1000 to 10000 nM; against FLT3 kinase (bound) it was more than 1000 nM; on PDGFRβ kinase (bound), more than 1000 nM; in [2] it was 300 to 1000 nM; at CSF-1R kinase it was less than 100 nM. Further, the values for the IC50 in assay [3] and in [4] were 1000 to 10000 nM and less than 300 nM, respectively. Moreover, the inhibition at 1 µM in [5] was more than 50%.
As for `COc1cc(N(C)c2ccc3ncc(N4CCOCC4)nc3c2C#N)ccc1OCc1ccc(C2CC2)nc1` [Example 130, 6-((4-((6-cyclopropylpyridin-3-yl)methoxy)-3-methoxyphenyl)(methyl)amino)-3-morpholinoquinoxaline-5-carbonitrile], the half-inhibitory concentration (IC50) is less than 100 nM at c-KIT kinase; 1000 to 10000 nM in [1]; more than 1000 nM against FLT3 kinase (bound); more than 1000 nM on PDGFRβ kinase (bound); 300 to 1000 nM in [2]; less than 100 nM against CSF-1R kinase. The IC50 in [3] is more than 10000 nM; in assay [4], less than 300 nM. Further, in assay [5], the inhibition at 1 µM is more than 50%.
For the molecule `COc1ccc(COc2ccc(Nc3ccc4ncc(N(C)C)nc4c3C#N)cc2OC)cc1C#N` [Example 139, 6-((4-((3-cyano-4-methoxybenzyl)oxy)-3-methoxyphenyl)amino)-3-(dimethylamino)quinoxaline-5-carbonitrile], the IC50 at c-KIT kinase was 100 to 300 nM; in [1], more than 10000 nM; on FLT3 kinase (bound), more than 1000 nM; against PDGFRβ kinase (bound) it was more than 1000 nM; in assay [2] it was more than 10000 nM; against CSF-1R kinase it was less than 100 nM. In addition, the results for the IC50 in assay [3] and in [4] were more than 10000 nM and less than 300 nM, respectively. Further, in assay [5], the inhibition at 1 µM was more than 50%.
Regarding `COc1ccc(COc2ccc(N(C)c3ccc4ncc(N5CCOCC5)nc4c3C#N)cc2OC)cc1` [Example 60, 6-((3-methoxy-4-((4-methoxybenzyl)oxy)phenyl)(methyl)amino)-3-morpholinoquinoxaline-5-carbonitrile], the IC50 is 300 to 1000 nM at c-KIT kinase; 1000 to 10000 nM in assay [1]; more than 1000 nM against FLT3 kinase (bound); more than 1000 nM on PDGFRβ kinase (bound); 1000 to 10000 nM in assay [2]; less than 100 nM against CSF-1R kinase. Also, the half-inhibitory concentration (IC50) in [3] is more than 10000 nM; in [4], less than 300 nM. Further, the inhibition at 1 µM in assay [5] is more than 50%.
For `COc1cc(Nc2ccc3ncc(N4CCOCC4)nc3c2C#N)ccc1OCc1cnn(CC2CC2)c1` [Example 141, 6-((4-((1-(cyclopropylmethyl)-1H-pyrazol-4-yl)methoxy)-3-methoxyphenyl)amino)-3-morpholinoquinoxaline-5-carbonitrile], the IC50 at c-KIT kinase was less than 100 nM; in assay [1], 1000 to 10000 nM; against FLT3 kinase (bound), more than 1000 nM; on PDGFRβ kinase (class symbol), 300 to 1000 nM; in [2], less than 300 nM; at CSF-1R kinase, less than 100 nM. The concentration for half-maximal inhibition (IC50) is more than 10000 nM in assay [3] and less than 300 nM in [4]. For the same molecule, in assay [5], the inhibition at 1 µM was more than 50%.
Consider `COc1cc(Nc2ccc3ncc(N4CCOCC4)nc3c2C#N)ccc1OCc1ccsc1` [Example 126, 6-((3-methoxy-4-(thiophen-3-ylmethoxy)phenyl)amino)-3-morpholinoquinoxaline-5-carbonitrile], for which the IC50 is less than 100 nM against c-KIT kinase; 1000 to 10000 nM in [1]; more than 1000 nM against FLT3 kinase (bound); more than 1000 nM against PDGFRβ kinase (bound); less than 300 nM in assay [2]; less than 100 nM at CSF-1R kinase. In addition, the results for the concentration for half-maximal inhibition (IC50) in assay [3] and in [4] were more than 10000 nM and 300 to 1000 nM, respectively. For the same molecule, the inhibition at 1 µM in [5] is more than 50%.
As for `COc1ccc(COc2ccc(Oc3ccc4ncc(N5CCOCC5)nc4c3C#N)cc2OC)cc1` [Example 27, 6-(3-methoxy-4-((4-methoxybenzyl)oxy)phenoxy)-3-morpholinoquinoxaline-5-carbonitrile], the concentration for half-maximal inhibition (IC50) on c-KIT kinase was 100 to 300 nM; in [1], more than 10000 nM; on FLT3 kinase (bound), more than 1000 nM; at PDGFRβ kinase (bound), more than 1000 nM; in assay [2], less than 300 nM; on CSF-1R kinase, less than 100 nM. Further, the IC50 is more than 10000 nM in [3] and less than 300 nM in assay [4]. In assay [5], the inhibition at 1 µM is more than 50%.
